In patent US11912660B2, “S6K1 protein kinase inhibitors as cancer therapeutics” (Xavier University of Louisiana, priority 2020, dated 2024):
Where two headings read alike, the source gives them in different places.

What was measured:
Experiment in all cases: SelectScreen kinase panel screening
Assay type in all cases: biochemical
LYN A = LYN A (Homo sapiens (Human), UniProt P07948)
Text: (§1) The complete list of the kinases given in Table 1 and their details can be found on the ThermoFisher website for Biochemical Kinase assays (thermofisher.com/us/en/home/industrial/pharma-biopharma/drug-discovery-development/target-and-lead-identification-and-validation/kinasebiology.html).

JAK2 = JAK2 (Homo sapiens (Human), UniProt O60674)
Text: as §1

ROCK1 = ROCK1 (Homo sapiens (Human), UniProt Q13464)
Text: as §1

PLK3 = PLK3 (Homo sapiens (Human), UniProt Q9H4B4)
Text: as §1

KIT = KIT (Homo sapiens (Human), UniProt P10721)
Text: as §1

JAK2 JH1 JH2 V617F = JAK2 JH1 JH2 V617F (Homo sapiens (Human), UniProt O60674, V617F)
Text: as §1

[1] = biological target: MAPK14 (p38 alpha) Direct (Homo sapiens (Human), UniProt Q16539)
Text: as §1

ERBB2 (HER2) = ERBB2 (HER2) (Homo sapiens (Human), UniProt P04626)
Text: as §1

CDK5/p25 = CDK5/p25 (Homo sapiens (Human), UniProt Q00535)
Text: as §1

CSNK1E (CK1 epsilon) = CSNK1E (CK1 epsilon) (Homo sapiens (Human), UniProt P49674)
Text: as §1

ROS1 = ROS1 (Homo sapiens (Human), UniProt P08922)
Text: as §1

SGK (SGK1) = SGK (SGK1) (Homo sapiens (Human), UniProt O00141)
Text: as §1

PDGFRB (PDGFR beta) = PDGFRB (PDGFR beta) (Homo sapiens (Human), UniProt P09619)
Text: as §1

PRKCB2 (PKC beta II) = PRKCB2 (PKC beta II) (Homo sapiens (Human), UniProt P05771)
Text: as §1

MET (cMet) = MET (cMet) (Homo sapiens (Human), UniProt P08581)
Text: as §1

MST1R (RON) = MST1R (RON) (Homo sapiens (Human), UniProt Q04912)
Text: as §1

JAK2 JH1 JH2 = JAK2 JH1 JH2 (Homo sapiens (Human), UniProt O60674)
Text: as §1

EPHB4 = EPHB4 (Homo sapiens (Human), UniProt P54760)
Text: as §1

AURKB (Aurora B) = AURKB (Aurora B) (Homo sapiens (Human), UniProt Q96GD4)
Text: as §1

TYRO3 (RSE) = TYRO3 (RSE) (Homo sapiens (Human), UniProt Q06418)
Text: as §1

PIM1 = PIM1 (Homo sapiens (Human), UniProt P11309)
Text: as §1

PLK1 = PLK1 (Homo sapiens (Human), UniProt P53350)
Text: as §1

EGFR (ErbB1) = EGFR (ErbB1) (Homo sapiens (Human), UniProt P00533)
Text: as §1

PAK4 = PAK4 (Homo sapiens (Human), UniProt O96013)
Text: as §1

FGR = FGR (Homo sapiens (Human), UniProt P09769)
Text: as §1

KDR (VEGFR2) = KDR (VEGFR2) (Homo sapiens (Human), UniProt P35968)
Text: as §1

CDK1/cyclin B = CDK1/cyclin B (Homo sapiens (Human), UniProt P06493)
Text: as §1

NTRK1 (TRKA) = NTRK1 (TRKA) (Homo sapiens (Human), UniProt P04629)
Text: as §1

PDGFRA (PDGFR alpha) = PDGFRA (PDGFR alpha) (Homo sapiens (Human), UniProt P16234)
Text: as §1

MATK (HYL) = MATK (HYL) (Homo sapiens (Human), UniProt P42679)
Text: as §1

AXL = AXL (Homo sapiens (Human), UniProt P30530)
Text: as §1

FES (FPS) = FES (FPS) (Homo sapiens (Human), UniProt P07332)
Text: as §1

Chain of JAK2 (O60674 whole entry): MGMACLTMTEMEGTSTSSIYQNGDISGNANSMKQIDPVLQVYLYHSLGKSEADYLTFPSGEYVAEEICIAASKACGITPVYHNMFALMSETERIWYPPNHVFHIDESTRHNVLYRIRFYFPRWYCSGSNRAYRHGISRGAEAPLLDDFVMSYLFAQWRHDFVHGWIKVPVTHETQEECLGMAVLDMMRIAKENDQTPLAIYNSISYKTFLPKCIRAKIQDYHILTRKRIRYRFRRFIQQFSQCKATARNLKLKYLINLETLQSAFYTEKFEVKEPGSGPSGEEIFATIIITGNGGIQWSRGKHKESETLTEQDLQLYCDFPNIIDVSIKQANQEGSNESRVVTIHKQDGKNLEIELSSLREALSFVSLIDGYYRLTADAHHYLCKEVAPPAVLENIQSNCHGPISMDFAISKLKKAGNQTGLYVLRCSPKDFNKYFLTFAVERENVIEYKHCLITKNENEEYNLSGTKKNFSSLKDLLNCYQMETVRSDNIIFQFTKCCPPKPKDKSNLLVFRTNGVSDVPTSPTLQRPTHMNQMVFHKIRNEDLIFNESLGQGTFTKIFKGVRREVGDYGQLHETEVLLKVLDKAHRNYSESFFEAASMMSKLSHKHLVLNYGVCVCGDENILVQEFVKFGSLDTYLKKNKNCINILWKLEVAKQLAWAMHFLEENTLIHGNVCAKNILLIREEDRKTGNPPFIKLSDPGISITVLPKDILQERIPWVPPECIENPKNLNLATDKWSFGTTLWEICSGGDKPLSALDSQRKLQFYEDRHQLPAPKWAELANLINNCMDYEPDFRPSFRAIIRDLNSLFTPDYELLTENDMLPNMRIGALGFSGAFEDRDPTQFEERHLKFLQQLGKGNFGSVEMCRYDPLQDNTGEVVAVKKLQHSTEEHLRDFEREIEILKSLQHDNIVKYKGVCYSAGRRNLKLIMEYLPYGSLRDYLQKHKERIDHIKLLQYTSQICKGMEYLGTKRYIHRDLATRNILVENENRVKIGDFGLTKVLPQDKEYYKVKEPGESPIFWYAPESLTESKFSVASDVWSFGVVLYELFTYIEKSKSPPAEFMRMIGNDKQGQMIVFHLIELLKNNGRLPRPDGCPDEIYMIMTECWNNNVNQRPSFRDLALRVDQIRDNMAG
Chain of ROS1 (P08922 28-2347): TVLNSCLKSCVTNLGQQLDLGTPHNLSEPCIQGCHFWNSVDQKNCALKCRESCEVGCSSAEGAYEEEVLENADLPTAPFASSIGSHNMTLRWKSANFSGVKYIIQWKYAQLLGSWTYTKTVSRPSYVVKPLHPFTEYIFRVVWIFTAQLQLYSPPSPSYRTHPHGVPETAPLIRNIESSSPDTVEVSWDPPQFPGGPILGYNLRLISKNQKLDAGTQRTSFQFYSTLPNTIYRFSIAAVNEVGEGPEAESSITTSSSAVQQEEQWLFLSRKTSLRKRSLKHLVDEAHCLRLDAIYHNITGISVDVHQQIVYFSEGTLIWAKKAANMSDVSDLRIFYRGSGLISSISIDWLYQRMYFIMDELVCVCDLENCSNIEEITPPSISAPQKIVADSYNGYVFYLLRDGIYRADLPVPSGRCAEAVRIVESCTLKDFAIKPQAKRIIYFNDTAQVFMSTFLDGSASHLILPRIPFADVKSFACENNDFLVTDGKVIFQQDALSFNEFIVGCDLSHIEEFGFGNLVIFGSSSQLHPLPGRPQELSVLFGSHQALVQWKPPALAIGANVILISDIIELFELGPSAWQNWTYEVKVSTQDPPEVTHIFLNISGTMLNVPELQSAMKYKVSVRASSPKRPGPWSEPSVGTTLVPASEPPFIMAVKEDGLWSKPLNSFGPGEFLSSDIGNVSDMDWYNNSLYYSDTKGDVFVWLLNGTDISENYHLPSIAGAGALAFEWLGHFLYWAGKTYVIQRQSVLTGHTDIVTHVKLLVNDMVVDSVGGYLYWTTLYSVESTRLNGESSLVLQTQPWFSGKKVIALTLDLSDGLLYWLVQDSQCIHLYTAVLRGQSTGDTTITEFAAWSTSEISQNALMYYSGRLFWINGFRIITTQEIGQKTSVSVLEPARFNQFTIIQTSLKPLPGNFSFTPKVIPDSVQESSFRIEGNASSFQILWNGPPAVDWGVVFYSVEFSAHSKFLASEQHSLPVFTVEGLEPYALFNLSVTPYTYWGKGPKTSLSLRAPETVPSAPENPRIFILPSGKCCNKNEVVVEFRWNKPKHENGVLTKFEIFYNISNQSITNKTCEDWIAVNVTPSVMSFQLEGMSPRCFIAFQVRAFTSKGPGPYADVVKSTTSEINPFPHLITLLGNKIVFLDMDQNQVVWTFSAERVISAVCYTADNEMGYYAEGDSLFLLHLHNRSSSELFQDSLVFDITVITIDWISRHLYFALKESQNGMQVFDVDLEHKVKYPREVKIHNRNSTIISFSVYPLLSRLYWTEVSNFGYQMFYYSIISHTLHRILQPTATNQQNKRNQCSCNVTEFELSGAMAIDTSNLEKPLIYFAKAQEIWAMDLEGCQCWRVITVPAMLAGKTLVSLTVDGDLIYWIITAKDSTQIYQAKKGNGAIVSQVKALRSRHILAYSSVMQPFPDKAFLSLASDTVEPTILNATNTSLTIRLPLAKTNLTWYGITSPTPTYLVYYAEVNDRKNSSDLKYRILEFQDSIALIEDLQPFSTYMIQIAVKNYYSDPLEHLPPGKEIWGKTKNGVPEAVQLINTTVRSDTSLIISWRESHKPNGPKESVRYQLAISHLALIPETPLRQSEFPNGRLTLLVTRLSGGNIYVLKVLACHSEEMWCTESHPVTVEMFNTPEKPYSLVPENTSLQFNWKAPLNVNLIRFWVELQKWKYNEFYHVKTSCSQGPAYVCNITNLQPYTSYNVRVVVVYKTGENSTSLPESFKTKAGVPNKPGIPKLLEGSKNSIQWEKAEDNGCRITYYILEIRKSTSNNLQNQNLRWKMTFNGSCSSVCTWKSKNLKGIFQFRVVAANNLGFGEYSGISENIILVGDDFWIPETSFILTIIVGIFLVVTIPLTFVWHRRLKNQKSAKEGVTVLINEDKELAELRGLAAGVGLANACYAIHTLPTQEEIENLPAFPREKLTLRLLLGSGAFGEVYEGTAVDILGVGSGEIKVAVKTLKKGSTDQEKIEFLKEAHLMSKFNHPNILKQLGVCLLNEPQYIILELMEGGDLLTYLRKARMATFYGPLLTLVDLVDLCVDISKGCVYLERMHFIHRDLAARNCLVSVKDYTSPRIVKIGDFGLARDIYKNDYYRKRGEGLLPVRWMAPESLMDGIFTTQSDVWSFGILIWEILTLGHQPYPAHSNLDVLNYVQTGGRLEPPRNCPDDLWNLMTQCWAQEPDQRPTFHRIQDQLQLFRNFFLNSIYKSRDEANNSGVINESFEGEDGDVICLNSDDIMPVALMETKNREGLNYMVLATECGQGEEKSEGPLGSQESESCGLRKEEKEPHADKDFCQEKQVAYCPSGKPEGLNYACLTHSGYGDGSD
Chain of JAK2 JH1 JH2 (O60674 532-1132): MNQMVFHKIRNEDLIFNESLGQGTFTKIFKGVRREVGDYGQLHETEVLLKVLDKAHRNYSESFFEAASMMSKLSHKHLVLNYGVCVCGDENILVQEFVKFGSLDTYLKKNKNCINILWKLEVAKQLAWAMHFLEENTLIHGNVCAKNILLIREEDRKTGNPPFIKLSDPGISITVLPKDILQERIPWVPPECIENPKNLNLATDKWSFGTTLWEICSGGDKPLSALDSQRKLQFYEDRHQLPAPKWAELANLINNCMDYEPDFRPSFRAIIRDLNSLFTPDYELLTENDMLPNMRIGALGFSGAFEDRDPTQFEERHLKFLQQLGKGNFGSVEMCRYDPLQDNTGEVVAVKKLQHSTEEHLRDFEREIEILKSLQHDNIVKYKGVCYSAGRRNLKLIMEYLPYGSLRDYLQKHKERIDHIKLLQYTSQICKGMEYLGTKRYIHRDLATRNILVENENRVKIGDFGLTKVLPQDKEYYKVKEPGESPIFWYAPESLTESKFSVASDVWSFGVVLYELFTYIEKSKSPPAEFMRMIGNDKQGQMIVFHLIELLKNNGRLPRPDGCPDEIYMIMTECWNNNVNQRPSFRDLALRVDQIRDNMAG
Chain of PLK1 (P53350 whole entry): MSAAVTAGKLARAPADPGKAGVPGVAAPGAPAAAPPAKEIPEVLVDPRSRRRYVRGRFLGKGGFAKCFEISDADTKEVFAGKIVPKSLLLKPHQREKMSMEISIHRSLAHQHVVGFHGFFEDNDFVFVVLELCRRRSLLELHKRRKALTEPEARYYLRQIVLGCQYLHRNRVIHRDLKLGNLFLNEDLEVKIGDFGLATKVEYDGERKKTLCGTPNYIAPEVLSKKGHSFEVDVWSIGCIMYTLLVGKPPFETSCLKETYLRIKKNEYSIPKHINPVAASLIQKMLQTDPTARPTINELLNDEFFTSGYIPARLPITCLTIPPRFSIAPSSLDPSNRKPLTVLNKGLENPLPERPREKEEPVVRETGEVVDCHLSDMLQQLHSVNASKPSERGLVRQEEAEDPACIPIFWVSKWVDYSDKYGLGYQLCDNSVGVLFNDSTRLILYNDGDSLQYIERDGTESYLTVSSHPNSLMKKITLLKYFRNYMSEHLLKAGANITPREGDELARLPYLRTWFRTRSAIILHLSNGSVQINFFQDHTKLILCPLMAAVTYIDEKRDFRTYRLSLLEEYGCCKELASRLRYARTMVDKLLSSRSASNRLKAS
Chain of AURKB (Aurora B) (Q96GD4 whole entry): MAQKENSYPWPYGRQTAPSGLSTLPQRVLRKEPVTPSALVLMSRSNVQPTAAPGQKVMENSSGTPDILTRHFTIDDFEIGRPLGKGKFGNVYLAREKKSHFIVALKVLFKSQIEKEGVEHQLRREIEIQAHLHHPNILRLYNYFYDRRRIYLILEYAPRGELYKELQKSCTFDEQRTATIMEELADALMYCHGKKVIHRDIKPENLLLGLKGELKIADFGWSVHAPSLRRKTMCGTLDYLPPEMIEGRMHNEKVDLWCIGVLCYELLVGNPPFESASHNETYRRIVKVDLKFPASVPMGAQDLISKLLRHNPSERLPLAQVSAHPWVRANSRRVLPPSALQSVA
Chain of JAK2 JH1 JH2 V617F (O60674 532-1132 V617F): as the sequence (O60674 532-1132) above, with V86F counted along it

- inhibition at 10 µM (LYN A; read-out: % Inhibition): 12%
- inhibition at 10 µM (LYN A; read-out: % Inhibition class): < 40%
- inhibition at 10 µM (JAK2; read-out: % Inhibition): 22%
- inhibition at 10 µM (JAK2; read-out: % Inhibition class): < 40%
- inhibition at 10 µM (ROCK1; read-out: % Inhibition): 21%
- inhibition at 10 µM (ROCK1; read-out: % Inhibition class): < 40%
- inhibition at 10 µM (PLK3; read-out: % Inhibition): 77%
- inhibition at 10 µM (PLK3; read-out: % Inhibition class): 40 to 80%
- inhibition at 10 µM (KIT; read-out: % Inhibition): 7%
- inhibition at 10 µM (KIT; read-out: % Inhibition class): < 40%
- inhibition at 10 µM (JAK2 JH1 JH2 V617F; read-out: % Inhibition): 6%
- inhibition at 10 µM (JAK2 JH1 JH2 V617F; read-out: % Inhibition class): < 40%
- inhibition at 10 µM ([1]; read-out: % Inhibition): 2%
- inhibition at 10 µM ([1]; read-out: % Inhibition class): < 40%
- inhibition at 10 µM (ERBB2 (HER2); read-out: % Inhibition): 6%
- inhibition at 10 µM (ERBB2 (HER2); read-out: % Inhibition class): < 40%
- inhibition at 10 µM (CDK5/p25; read-out: % Inhibition): 27%
- inhibition at 10 µM (CDK5/p25; read-out: % Inhibition class): < 40%
- inhibition at 10 µM (CSNK1E (CK1 epsilon); read-out: % Inhibition): 33%
- inhibition at 10 µM (CSNK1E (CK1 epsilon); read-out: % Inhibition class): < 40%
- inhibition at 10 µM (ROS1; read-out: % Inhibition): 3%
- inhibition at 10 µM (ROS1; read-out: % Inhibition class): < 40%
- inhibition at 10 µM (SGK (SGK1); read-out: % Inhibition): 50%
- inhibition at 10 µM (SGK (SGK1); read-out: % Inhibition class): 40 to 80%
- inhibition at 10 µM (PDGFRB (PDGFR beta); read-out: % Inhibition): 5%
- inhibition at 10 µM (PDGFRB (PDGFR beta); read-out: % Inhibition class): < 40%
- inhibition at 10 µM (PRKCB2 (PKC beta II); read-out: % Inhibition): 23%
- inhibition at 10 µM (PRKCB2 (PKC beta II); read-out: % Inhibition class): < 40%
- inhibition at 10 µM (MET (cMet); read-out: % Inhibition): -4%
- inhibition at 10 µM (MET (cMet); read-out: % Inhibition class): < 40%
- inhibition at 10 µM (MST1R (RON); read-out: % Inhibition): 27%
- inhibition at 10 µM (MST1R (RON); read-out: % Inhibition class): < 40%
- inhibition at 10 µM (JAK2 JH1 JH2; read-out: % Inhibition): 15%
- inhibition at 10 µM (JAK2 JH1 JH2; read-out: % Inhibition class): < 40%
- inhibition at 10 µM (EPHB4; read-out: % Inhibition): 9%
- inhibition at 10 µM (EPHB4; read-out: % Inhibition class): < 40%
- inhibition at 10 µM (AURKB (Aurora B); read-out: % Inhibition): 63%
- inhibition at 10 µM (AURKB (Aurora B); read-out: % Inhibition class): 40 to 80%
- inhibition at 10 µM (TYRO3 (RSE); read-out: % Inhibition): 25%
- inhibition at 10 µM (TYRO3 (RSE); read-out: % Inhibition class): < 40%
- inhibition at 10 µM (PIM1; read-out: % Inhibition): 35%
- inhibition at 10 µM (PIM1; read-out: % Inhibition class): < 40%
- inhibition at 10 µM (PLK1; read-out: % Inhibition): 9%
- inhibition at 10 µM (PLK1; read-out: % Inhibition class): < 40%
- inhibition at 10 µM (EGFR (ErbB1); read-out: % Inhibition): 12%
- inhibition at 10 µM (EGFR (ErbB1); read-out: % Inhibition class): < 40%
- inhibition at 10 µM (PAK4; read-out: % Inhibition): 29%
- inhibition at 10 µM (PAK4; read-out: % Inhibition class): < 40%
- inhibition at 10 µM (FGR; read-out: % Inhibition): 51%
- inhibition at 10 µM (FGR; read-out: % Inhibition class): 40 to 80%
- inhibition at 10 µM (KDR (VEGFR2); read-out: % Inhibition): 56%
- inhibition at 10 µM (KDR (VEGFR2); read-out: % Inhibition class): 40 to 80%
- inhibition at 10 µM (CDK1/cyclin B; read-out: % Inhibition): 8%
- inhibition at 10 µM (CDK1/cyclin B; read-out: % Inhibition class): < 40%
- inhibition at 10 µM (NTRK1 (TRKA); read-out: % Inhibition): 5%
- inhibition at 10 µM (NTRK1 (TRKA); read-out: % Inhibition class): < 40%
- inhibition at 10 µM (PDGFRA (PDGFR alpha); read-out: % Inhibition): 13%
- inhibition at 10 µM (PDGFRA (PDGFR alpha); read-out: % Inhibition class): < 40%
- inhibition at 10 µM (MATK (HYL); read-out: % Inhibition): -5%
- inhibition at 10 µM (MATK (HYL); read-out: % Inhibition class): < 40%
- inhibition at 10 µM (AXL; read-out: % Inhibition): 10%
- inhibition at 10 µM (AXL; read-out: % Inhibition class): < 40%
- inhibition at 10 µM (FES (FPS); read-out: % Inhibition): 36%
- inhibition at 10 µM (FES (FPS); read-out: % Inhibition class): < 40%
Structure (SMILES): Nc1cc(N)c2c(c1)C(=O)NC2=O [RJ1, 4,6-diaminoisoindoline-1,3-dione]
